Test results taken from ChEMBL document CHEMBL1909046, “DrugMatrix in vitro pharmacology data”.

Key:
Conditions in all cases: Not Active = under 50% inhibition at 10 µM
D(1A) dopamine receptor = D(1A) dopamine receptor (Homo sapiens, UniProt P21728); test: DRUGMATRIX: Dopamine D1 radioligand binding (ligand: [3H] SCH-23390); type: cell membranes, CHO, Membrane
[1] = DRUGMATRIX: GABAA, Muscimol, Central radioligand binding (ligand: [3H] Muscimol); type: cell membranes, Rattus norvegicus, Wistar, Brain, Membrane
[2] = DRUGMATRIX: Glutamate, AMPA radioligand binding (ligand: [3H] AMPA); type: cell membranes, Rattus norvegicus, Wistar, Cerebral cortex, Membrane
[3] = DRUGMATRIX: Imidazoline I2, Central radioligand binding (ligand: [3H] Idazoxan); type: cell membranes, Rattus norvegicus, Wistar, Cerebral cortex, Membrane
[4] = biological target: T1, Amine oxidase [flavin-containing] A (Homo sapiens, UniProt P21397); test: DRUGMATRIX: Monoamine Oxidase MAO-A enzyme inhibition (substrate: Kynuramine); design: species or system BTI-TN-5B1-4
T1 sequence (P21397 whole entry): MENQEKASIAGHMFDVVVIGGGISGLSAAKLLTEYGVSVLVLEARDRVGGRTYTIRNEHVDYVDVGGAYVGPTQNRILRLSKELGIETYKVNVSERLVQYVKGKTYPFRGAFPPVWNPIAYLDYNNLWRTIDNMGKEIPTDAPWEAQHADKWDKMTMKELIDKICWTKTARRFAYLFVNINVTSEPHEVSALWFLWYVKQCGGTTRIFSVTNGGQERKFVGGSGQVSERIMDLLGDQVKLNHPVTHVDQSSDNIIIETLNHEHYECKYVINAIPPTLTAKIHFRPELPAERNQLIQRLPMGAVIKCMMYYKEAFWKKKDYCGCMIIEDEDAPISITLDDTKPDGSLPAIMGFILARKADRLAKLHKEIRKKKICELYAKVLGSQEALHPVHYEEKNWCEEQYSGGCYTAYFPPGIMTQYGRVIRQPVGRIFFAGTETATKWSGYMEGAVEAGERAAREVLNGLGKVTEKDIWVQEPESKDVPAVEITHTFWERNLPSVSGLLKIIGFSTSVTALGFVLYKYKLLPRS

[5] = DRUGMATRIX: Phorbol Ester radioligand binding (ligand: [3H] PDBu); type: cell membranes, Mus musculus, ICR, Brain, Membrane
[6] = biological target: Mitogen-activated protein kinase 3 (Homo sapiens, UniProt P27361); test: DRUGMATRIX: Protein Serine/Threonine Kinase, ERK1 enzyme inhibition (substrate: Myelin Basic Protein); design: species or system Escherichia coli
Chain of Mitogen-activated protein kinase 3 (P27361 whole entry): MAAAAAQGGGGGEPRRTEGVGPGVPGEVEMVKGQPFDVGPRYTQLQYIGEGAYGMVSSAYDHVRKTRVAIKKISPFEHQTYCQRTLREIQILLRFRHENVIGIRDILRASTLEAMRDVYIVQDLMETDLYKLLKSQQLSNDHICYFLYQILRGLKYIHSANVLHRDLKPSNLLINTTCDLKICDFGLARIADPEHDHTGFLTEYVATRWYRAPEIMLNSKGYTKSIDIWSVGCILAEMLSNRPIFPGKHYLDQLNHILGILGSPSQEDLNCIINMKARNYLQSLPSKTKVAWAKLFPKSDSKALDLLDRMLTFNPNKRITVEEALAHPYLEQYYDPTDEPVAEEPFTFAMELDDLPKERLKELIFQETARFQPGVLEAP

Chain of D(1A) dopamine receptor (P21728 whole entry): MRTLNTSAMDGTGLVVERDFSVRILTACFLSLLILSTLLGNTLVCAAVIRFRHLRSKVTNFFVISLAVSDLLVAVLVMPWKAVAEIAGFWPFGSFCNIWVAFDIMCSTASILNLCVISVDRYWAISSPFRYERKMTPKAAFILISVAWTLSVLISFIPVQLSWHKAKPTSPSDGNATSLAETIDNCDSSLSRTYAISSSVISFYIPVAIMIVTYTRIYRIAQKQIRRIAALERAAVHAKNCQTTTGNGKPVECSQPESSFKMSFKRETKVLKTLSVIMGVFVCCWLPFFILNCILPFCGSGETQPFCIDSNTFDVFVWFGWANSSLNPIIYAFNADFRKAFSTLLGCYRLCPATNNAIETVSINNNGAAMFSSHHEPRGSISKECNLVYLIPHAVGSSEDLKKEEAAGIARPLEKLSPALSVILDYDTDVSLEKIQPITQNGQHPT

CCN1CCN(C(=O)N[C@@H](C(=O)N[C@@H]2C(=O)N3[C@@H]2SC(C)(C)[C@@H]3C(=O)O)c2ccccc2)C(=O)C1=O [PIPERACILLIN]
Not Active: IC50 (D(1A) dopamine receptor; cho) | IC50 [1] | Ki [1] | IC50 [2] | Ki [2] | IC50 [3] | Ki [3] | IC50 ([4]; bti-tn-5b1-4) | IC50 [5] | Ki [5] | IC50 [6]

O=C(O)c1ccccc1 [BENZOIC ACID]
Not Active: IC50 (D(1A) dopamine receptor; cho) | IC50 [1] | Ki [1] | IC50 [2] | Ki [2] | IC50 [3] | Ki [3] | IC50 ([4]; bti-tn-5b1-4) | IC50 [5] | Ki [5] | IC50 [6]

CC[C@H]1OC(=O)[C@H](C)[C@@H](O[C@H]2C[C@@](C)(OC)[C@@H](O)[C@H](C)O2)[C@H](C)[C@@H](O[C@@H]2O[C@H](C)C[C@H](N(C)C)[C@H]2O)[C@](C)(O)C[C@@H](C)C(=O)[C@H](C)[C@@H](O)[C@]1(C)O [ERYTHROMYCIN]
Not Active: IC50 (D(1A) dopamine receptor; cho) | IC50 [1] | Ki [1] | IC50 [2] | Ki [2] | IC50 [3] | Ki [3] | IC50 ([4]; bti-tn-5b1-4) | IC50 [5] | Ki [5] | IC50 [6]

c1ccc2c(c1)Nc1ccccc1S2 [PHENOTHIAZINE]
592 nM: IC50 ([4]; read-out: IC50)
Not Active: IC50 (D(1A) dopamine receptor; cho) | IC50 [1] | Ki [1] | IC50 [2] | Ki [2] | IC50 [3] | Ki [3] | IC50 [5] | Ki [5] | IC50 [6]

CHROMIC CHLORIDE
Not Active: IC50 (D(1A) dopamine receptor; cho) | Ki (D(1A) dopamine receptor; cho) | IC50 [1] | Ki [1] | IC50 [2] | Ki [2] | IC50 [3] | Ki [3] | IC50 ([4]; bti-tn-5b1-4) | Ki ([4]; bti-tn-5b1-4) | IC50 [5] | Ki [5] | IC50 [6] | Ki [6]

Cl.NC[C@H]1CC[C@H](C(=O)Oc2ccc(CCC(=O)O)cc2)CC1 [CETRAXATE HYDROCHLORIDE]
Not Active: IC50 (D(1A) dopamine receptor; cho) | IC50 [1] | Ki [1] | IC50 [2] | Ki [2] | IC50 [3] | Ki [3] | IC50 ([4]; bti-tn-5b1-4) | IC50 [5] | Ki [5] | IC50 [6]

O=c1[nH]c2ccccc2c2ccccc12
Not Active: IC50 (D(1A) dopamine receptor; cho) | IC50 [1] | Ki [1] | IC50 [2] | Ki [2] | IC50 [3] | Ki [3] | IC50 ([4]; bti-tn-5b1-4) | IC50 [5] | Ki [5] | IC50 [6]

C[C@H](C(=O)O)c1ccc2oc(-c3ccc(F)cc3)nc2c1 [FLUNOXAPROFEN]
Not Active: IC50 (D(1A) dopamine receptor; cho) | IC50 [1] | Ki [1] | IC50 [2] | Ki [2] | IC50 [3] | Ki [3] | IC50 ([4]; bti-tn-5b1-4) | IC50 [5] | Ki [5] | IC50 [6]

O=C(O)CNCP(=O)(O)O [GLYPHOSATE]
Not Active: IC50 (D(1A) dopamine receptor; cho) | IC50 [1] | Ki [1] | IC50 [2] | Ki [2] | IC50 [3] | Ki [3] | IC50 ([4]; bti-tn-5b1-4) | IC50 [5] | Ki [5] | IC50 [6]

C[N+](C)(C)CCOC(N)=O.[Cl-] [CARBACHOL]
Not Active: IC50 (D(1A) dopamine receptor; cho) | IC50 [1] | Ki [1] | IC50 [2] | Ki [2] | IC50 [3] | Ki [3] | IC50 ([4]; bti-tn-5b1-4) | IC50 [5] | Ki [5] | IC50 [6]

O=C(O)CCc1nc(-c2ccccc2)c(-c2ccccc2)o1 [OXAPROZIN]
Not Active: IC50 (D(1A) dopamine receptor; cho) | IC50 [1] | Ki [1] | IC50 [2] | Ki [2] | IC50 [3] | Ki [3] | IC50 ([4]; bti-tn-5b1-4) | IC50 [5] | Ki [5] | IC50 [6]

CC(=O)[C@]1(O)Cc2c(O)c3c(c(O)c2[C@@H](O[C@H]2C[C@H](N)[C@H](O)[C@H](C)O2)C1)C(=O)c1ccccc1C3=O [IDARUBICIN]
Not Active: IC50 (D(1A) dopamine receptor; cho) | IC50 [1] | Ki [1] | IC50 [2] | Ki [2] | IC50 [3] | Ki [3] | IC50 ([4]; bti-tn-5b1-4) | IC50 [5] | Ki [5] | IC50 [6]

NS(=O)(=O)c1cc(C(=O)O)c(NCc2ccco2)cc1Cl [FUROSEMIDE]
Not Active: IC50 (D(1A) dopamine receptor; cho) | IC50 [1] | Ki [1] | IC50 [2] | Ki [2] | IC50 [3] | Ki [3] | IC50 ([4]; bti-tn-5b1-4) | IC50 [5] | Ki [5] | IC50 [6]

O=C1CN(/N=C/c2ccc([N+](=O)[O-])o2)C(=O)N1 [NITROFURANTOIN]
Not Active: IC50 (D(1A) dopamine receptor; cho) | IC50 [1] | Ki [1] | IC50 [2] | Ki [2] | IC50 [3] | Ki [3] | IC50 ([4]; bti-tn-5b1-4) | IC50 [5] | Ki [5] | IC50 [6]

CARBOXYMETHYLCELLULOSE
Not Active: IC50 (D(1A) dopamine receptor; cho) | Ki (D(1A) dopamine receptor; cho) | IC50 [1] | Ki [1] | IC50 [2] | Ki [2] | IC50 [3] | Ki [3] | IC50 ([4]; bti-tn-5b1-4) | Ki ([4]; bti-tn-5b1-4) | IC50 [5] | Ki [5] | IC50 [6] | Ki [6]

c1ccc2sc(SSc3nc4ccccc4s3)nc2c1 [BENZOTHIAZYL DISULFIDE]
Not Active: IC50 [1] | Ki [1] | IC50 [2] | Ki [2] | IC50 [3] | Ki [3] | IC50 ([4]; bti-tn-5b1-4) | IC50 [5] | Ki [5] | IC50 [6]
595 nM: Ki (D(1A) dopamine receptor; read-out: Ki)
1190 nM: IC50 (D(1A) dopamine receptor; read-out: IC50)

CC12CCC(CC1)C(C)(C)O2 [EUCALYPTOL]
Not Active: IC50 (D(1A) dopamine receptor; cho) | IC50 [1] | Ki [1] | IC50 [2] | Ki [2] | IC50 [3] | Ki [3] | IC50 ([4]; bti-tn-5b1-4) | IC50 [5] | Ki [5] | IC50 [6]

CC(=O)Nc1ccc2c(c1)Cc1ccccc1-2 [2-ACETYLAMINOFLUORENE]
Not Active: IC50 (D(1A) dopamine receptor; cho) | IC50 [1] | Ki [1] | IC50 [2] | Ki [2] | IC50 [3] | Ki [3] | IC50 [5] | Ki [5] | IC50 [6]
59 nM: IC50 ([4]; read-out: IC50)

CCN1C[C@]2(COC)[C@H](O)C[C@H](OC)[C@@]34[C@@H]5C[C@@]6(O)[C@H](OC(=O)c7ccccc7)[C@@H]5[C@@](OC(C)=O)([C@@H]([C@H](OC)[C@H]23)[C@@H]14)[C@@H](O)[C@@H]6OC [ACONITINE]
Not Active: IC50 (D(1A) dopamine receptor; cho) | IC50 [1] | Ki [1] | IC50 [2] | Ki [2] | IC50 [3] | Ki [3] | IC50 ([4]; bti-tn-5b1-4) | IC50 [5] | Ki [5] | IC50 [6]

COc1ccccc1OCCNCC(O)COc1cccc2[nH]c3ccccc3c12 (stereo not drawn) [CARVEDILOL]
1280 nM: Ki ([3]; read-out: Ki)
1920 nM: IC50 ([3]; read-out: IC50)
Not Active: IC50 [1] | Ki [1] | IC50 [2] | Ki [2] | IC50 ([4]; bti-tn-5b1-4) | IC50 [5] | Ki [5] | IC50 [6]
1500 nM: IC50 (D(1A) dopamine receptor; read-out: IC50)
749 nM: Ki (D(1A) dopamine receptor; read-out: Ki)
